Data: BindingDB's records for patent US20250313563 (The Broad Institute, 2025)
pIC50: −log10 of the molar value. Where “and” joins values, the source holds several entries; their conditions need not be identical. Identical values can stand only once.

Tests used:
[1] = target: Glycogen synthase kinase-3 beta (Homo sapiens, UniProt P49841); test: TR-FRET Assay
In short: (§1)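 Kinase activity, measured after a 30-minute compound preincubation, was stopped with EDTA and quantified by TR-FRET using a Tb-labelled pSer641 antibody paired with streptavidin-d2.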

[2] = target: Glycogen synthase kinase-3 alpha (Homo sapiens, UniProt P49840); test: TR-FRET Assay
Sequence of Glycogen synthase kinase-3 alpha (P49840 whole entry): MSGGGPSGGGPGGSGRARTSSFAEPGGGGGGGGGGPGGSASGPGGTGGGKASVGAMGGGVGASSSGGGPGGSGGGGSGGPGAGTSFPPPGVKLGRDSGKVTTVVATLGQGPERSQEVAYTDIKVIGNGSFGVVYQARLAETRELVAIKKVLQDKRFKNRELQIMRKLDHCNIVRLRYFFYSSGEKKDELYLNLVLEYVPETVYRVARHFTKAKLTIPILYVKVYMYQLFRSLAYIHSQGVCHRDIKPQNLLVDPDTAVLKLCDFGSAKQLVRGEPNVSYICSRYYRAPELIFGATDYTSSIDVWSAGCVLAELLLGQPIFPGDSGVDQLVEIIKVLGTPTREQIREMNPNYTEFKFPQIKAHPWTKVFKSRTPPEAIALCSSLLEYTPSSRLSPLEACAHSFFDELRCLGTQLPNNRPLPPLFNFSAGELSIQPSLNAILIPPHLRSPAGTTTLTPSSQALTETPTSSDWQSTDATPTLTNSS
In short: as §1

Sequence of Glycogen synthase kinase-3 beta (P49841 whole entry): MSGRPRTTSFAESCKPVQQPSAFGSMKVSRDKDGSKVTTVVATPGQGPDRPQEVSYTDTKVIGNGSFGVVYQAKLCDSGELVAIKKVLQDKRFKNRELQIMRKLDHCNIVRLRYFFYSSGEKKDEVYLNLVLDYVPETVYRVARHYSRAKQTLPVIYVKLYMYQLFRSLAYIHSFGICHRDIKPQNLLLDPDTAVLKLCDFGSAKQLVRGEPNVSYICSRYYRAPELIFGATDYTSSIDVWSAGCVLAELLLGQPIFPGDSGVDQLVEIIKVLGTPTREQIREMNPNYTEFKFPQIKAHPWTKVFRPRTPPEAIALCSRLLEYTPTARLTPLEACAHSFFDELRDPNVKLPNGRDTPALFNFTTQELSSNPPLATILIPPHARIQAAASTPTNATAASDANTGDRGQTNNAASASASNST

Row | Compound | pIC50 [1] | pIC50 [2]
1 | CC(C)(C)CC(=O)N1CC2(C1)CC1(CO2)C2=C(N=NC2)NC2=C1C(=O)CC(C)(C)C2 (configuration not stated) [US20250313563, Compound 947301] | 5.30 to 6.00 | 6.00 to 7.00
2 | CC(C)CC(=O)N1CC2(C1)CC1(CO2)C2=C(N=NC2)NC2=C1C(=O)CC(C)(C)C2 (configuration not stated) [US20250313563, Compound 947302] | > 7.00 | > 7.00
3 | CC1(C)CC(=O)C2=C(C1)NC1=C(CN=N1)C21COC2(CN(C(=O)C(C)(C)C)C2)C1 (configuration not stated) [US20250313563, Compound 947303] | > 7.00 | > 7.00
4 | CC(C)C(=O)N1CC2(C1)CC1(CO2)C2=C(N=NC2)NC2=C1C(=O)CC(C)(C)C2 (configuration not stated) [US20250313563, Compound 947304] | 6.00 to 7.00 | > 7.00
5 | CC1(C)CC(=O)C2=C(C1)NC1=C(CN=N1)C21COC2(CN(C(=O)CC3CCCCC3)C2)C1 (configuration not stated) [US20250313563, Compound 947305] | > 7.00 | > 7.00
6 | CC1(C)CC(=O)C2=C(C1)NC1=C(CN=N1)C21COC2(CN(C(=O)Cc3ccccc3)C2)C1 (configuration not stated) [US20250313563, Compound 947306] | > 7.00 | > 7.00
7 | CC1(C)CC(=O)C2=C(C1)NC1=C(CN=N1)C21COC2(CN(C(=O)C3(C)CCCC3)C2)C1 (configuration not stated) [US20250313563, Compound 947307] | > 7.00 | > 7.00
8 | CC1(C)CC(=O)C2=C(C1)NC1=C(CN=N1)C21COC2(CN(C(=O)C3CCCCCC3)C2)C1 (configuration not stated) [US20250313563, Compound 947308] | 6.00 to 7.00 | > 7.00
9 | CC[C@]1(c2cccc(-c3ccncc3C)c2)C2=C(CC(C)(C)CC2=O)NC2N=NC(C(F)(F)F)=C21 (some centres not stated) [US20250313563, Compound 947324] | > 7.00 | > 7.00
10 | CC[C@@]1(c2cccc(-c3ccncc3C)c2)C2=C(CC(C)(C)CC2=O)NC2N=NC(C(F)(F)F)=C21 (some centres not stated) [US20250313563, Compound 947325] | 6.00 to 7.00 | > 7.00
11 | CC[C@]1(c2cccc(-c3ccncc3F)c2)C2=C(CC(C)(C)CC2=O)NC2N=NC(C(F)(F)F)=C21 (some centres not stated) [US20250313563, Compound 947326] | > 7.00 | > 7.00
12 | CC[C@@]1(c2cccc(-c3ccncc3F)c2)C2=C(CC(C)(C)CC2=O)NC2N=NC(C(F)(F)F)=C21 (some centres not stated) [US20250313563, Compound 947327] | 6.00 to 7.00 | > 7.00
13 | CC[C@]1(c2cccc(-c3ccnc(C)c3C)c2)C2=C(CC(C)(C)CC2=O)NC2N=NC(C(F)(F)F)=C21 (some centres not stated) [US20250313563, Compound 947328] | 6.00 to 7.00 | 6.00 to 7.00
14 | CCC1(c2cccc(C(F)(F)F)c2)C2=CN=NC2NC2=C1C(=O)N(c1ccc(OC)cc1)CC2 (configuration not stated) [US20250313563, Compound 947332] | 6.00 to 7.00 | > 7.00
15 | CCN(c1cccc([C@]2(CC)C3=CN=NC3NC3=C2C(=O)CC(C)(C)C3)c1)c1ncccn1 (some centres not stated) [US20250313563, Compound 947334] | 5.30 to 6.00 | 6.00 to 7.00
16 | CC[C@]1(c2cccc(N(C)c3nccc(OC)n3)c2)C2=CN=NC2NC2=C1C(=O)CC(C)(C)C2 (some centres not stated) [US20250313563, Compound 947336] | > 7.00 and 5.30 to 6.00 | > 7.00 and 6.00 to 7.00
17 | CC[C@@]1(c2cccc(N(C)c3nccc(OC)n3)c2)C2=CN=NC2NC2=C1C(=O)CC(C)(C)C2 (some centres not stated) [US20250313563, Compound 947337] | 5.30 to 6.00 | 6.00 to 7.00
18 | CC[C@@]1(c2cccc(-c3cc(C)ncc3C)c2)C2=C(CC(C)(C)NC2=O)NC2N=NC(C(F)(F)F)=C21 (some centres not stated) [US20250313563, Compound 947364] | 6.00 to 7.00 | 6.00 to 7.00
19 | CC[C@]1(c2cccc(-c3ccnn3C)c2)C2=C(CC(C)(C)CC2=O)NC2N=NC(C(F)(F)F)=C21 (some centres not stated) [US20250313563, Compound 947365] | 5.30 to 6.00 | 6.00 to 7.00
20 | CC[C@@]1(c2cccc(-c3ccnn3C)c2)C2=C(CC(C)(C)CC2=O)NC2N=NC(C(F)(F)F)=C21 (some centres not stated) [US20250313563, Compound 947372] | > 7.00 | > 7.00
21 | CC[C@]1(c2cccc(-c3cc(C)nn3C)c2)C2=C(CC(C)(C)CC2=O)NC2N=NC(C(F)(F)F)=C21 (some centres not stated) [US20250313563, Compound 947383] | < 5.30 | 5.30 to 6.00
22 | CC[C@@]1(c2cccc(-c3cc(C)nn3C)c2)C2=C(CC(C)(C)CC2=O)NC2N=NC(C(F)(F)F)=C21 (some centres not stated) [US20250313563, Compound 947384] | > 7.00 and 6.00 to 7.00 | > 7.00
23 | CCC1(c2cccc(S(C)(=O)=O)c2)C2=C(CC(C)(C)NC2=O)NC2N=NC(C)=C21 (configuration not stated) [US20250313563, Compound 947395B:] | > 7.00 | > 7.00
24 | CCC1(c2cccc(S(C)(=O)=O)c2)C2=C(CC(C)(C)NC2=O)NC2N=NC(C)=C21 (configuration not stated) [US20250313563, Compound 947395] | 6.00 to 7.00 | 6.00 to 7.00
25 | CCC1(c2cccc(S(=O)(=O)C(C)C)c2)C2=C(CC(C)(C)NC2=O)NC2N=NC(C)=C21 (configuration not stated) [US20250313563, Compound 947396] | > 7.00 | > 7.00
26 | CCC1(c2cccc(-c3cnnn3C(C)C)c2)C2=CN=NC2NC2=C1C(=O)CC(C)(C)C2 (configuration not stated) [US20250313563, Compound 947397] | > 7.00 | > 7.00
